{
  "source": "patent US6982348B2",
  "about": "“Aminoethanol derivatives” (Takeda Pharmaceutical Company Limited, priority 2001, dated 2006)",
  "key": {"[1]": {"biological_target": "T1, human CETP (Homo sapiens, UniProt P11597)", "T1 sequence (P11597 18-493)": "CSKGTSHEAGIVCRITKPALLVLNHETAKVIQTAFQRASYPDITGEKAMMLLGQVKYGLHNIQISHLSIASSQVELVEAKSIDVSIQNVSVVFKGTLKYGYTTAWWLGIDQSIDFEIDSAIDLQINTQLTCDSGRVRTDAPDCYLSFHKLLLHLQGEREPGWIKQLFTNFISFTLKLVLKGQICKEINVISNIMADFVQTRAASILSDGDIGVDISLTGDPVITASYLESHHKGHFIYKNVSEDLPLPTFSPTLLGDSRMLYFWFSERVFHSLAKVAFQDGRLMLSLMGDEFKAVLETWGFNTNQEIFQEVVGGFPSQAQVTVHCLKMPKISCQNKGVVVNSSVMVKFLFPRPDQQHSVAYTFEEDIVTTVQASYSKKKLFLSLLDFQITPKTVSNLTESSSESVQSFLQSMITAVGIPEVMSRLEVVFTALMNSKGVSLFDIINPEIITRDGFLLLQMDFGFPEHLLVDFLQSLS", "assay": "Assay of cholesteryl ester transfer protein inhibitory activity, 50% human plasma-containing measurement system", "type": "biochemical", "conditions": "BODIPY-CE-ME donor, VLDL-LDL acceptor, reaction at 37° C. for 60 min.", "procedure": "(§1) Assay of Cholesteryl Ester Transfer Protein Inhibitory Activity\n(§2) Fresh rabbit serum was adjusted with KBr to the density of (1.063 g/ml), and the fractions (VLDL-LDL, density<1.063 g/ml) floated by ultra-centrifugation operation (SW41—Ti, 40,000 rpm, 18 hrs., 4° C., Beckman model L8-55) were collected, subjected to dialysis against 0.15 M NaCl-10 mM Tris-HCl, pH 7.4 (TBS), sterilized by filtration through a filter and preserved at 4° C.\n(§3) A solution of BODIPY-CE (0.6 mg) in chloroform was added to egg PC (phosphatidylcholine) ([…]) and triolein (2 mg), and after dissolution, the lipid was air dried under a nitrogen gas reflux and the solvent was removed under high vacuum. To this lipid was added an apo HDL solution (7.5 ml) obtained by defatting human HDL (1.063<d<1.21) with chloroform-methanol (2:1, v/v), dissolving in 6 M urea-containing TBS and dialyzing against TBS, and the mixture was subjected to sonication (BRANSON SONIFIRE CELL DISRUPTOR 200, dial 6, 5 min×4) to give BOBIPY-CE-ME. After centrifugation (CENTRIPREP 10), it was sterilized by filtration through a filter and preserved at 4° C.\n(§4) The test compound (20% DMSO solution, 5 μl), human plasma (75 μl), acceptor lipoprotein (VLDL-LDL, 20 μl) and partially purified human CETP (25 μl) were mixed and incubated at 37° C. for 30 min. BODIPY-CE-ME (25 μl) was added (total 150 μl) and a transfer reaction was started. After reaction at 37° C. for 60 min., fluorescence intensity was measured at Ex. 490 nm/Em. 530 nm. The CETP inhibitory activity (% inhibition) was calculated by the following formula. [formula]\n(§5) The IC50 value was determined as a concentration showing 50% inhibition by plotting the logarithm of the concentration of test compound and % inhibition."}, "[2]": {"biological_target": "T1, human CETP", "assay": "Assay of cholesteryl ester transfer protein inhibitory activity, standard measurement system", "type": "biochemical", "conditions": "BODIPY-CE-ME donor, VLDL-LDL acceptor, reaction at 37° C. for 30 min.", "procedure": "as §1, §2, §3\nas §4, with “TS” for “human plasma”, “30” for “60”, “[formula] 4) 50% Human Plasma-Containing Measurement System” for “[formula]”\nas §5"}},
  "data": [
    {"smiles": "CC(C)(C)c1ccc(C[C@@H](NC(=O)c2cccc3c(Cl)cccc23)[C@@H](O)c2cccc(Cl)c2)cc1", "note": "(racemic) [Example 274, N-[(1RS,2SR)-1-(4-tert-butylbenzyl)-2-(3-chlorophenyl)-2-hydroxyethyl]-5-chloro-1-naphthamide]", "values": [
      {"measurement": "IC50", "setting": "[1]", "value": 3.1, "unit": "µM"},
      {"measurement": "melting point", "value": "112 to 113", "unit": "°C"},
      {"measurement": "IC50", "setting": "[2]", "value": 0.052, "unit": "µM"}
    ]}
  ]
}
